Tested on: Zebrafish (Danio rerio) larvae
Assay: Behavioral assay in 6-OHDA zebrafish larvae model
Format: in vivo
Conditions: larvae 4 dpf, 750 µM 6-OHDA 24 h, then peptide 50 µM for 24 h; filmed 5 min, ToxTrac; 12 embryos per group
Description: Wild-type adult D. rerio (zebrafish) were obtained from a licensed commercial distributor. They were maintained on a 14 h light–10 h dark photoperiod in fresh filtered water at 28 °C and fed twice a day with dry food and once a day with Artemia sp. Reproduction was performed in individual fish tanks in a 1 male–1 female proportion, with pebbles and artificial plants. Eggs were collected, selected and maintained in an incubator at 28 °C until 4 days post fertilization (dpf). This study followed the guidelines of the National Council for Animal Experimentation Control (CONCEA) and was approved by the Ethics Commission for Animal Use (CEUA) at the Bioscience Institute of São Paulo State University (São Vicente, Brazil: Protocol Number 06/2023, approved on 22 June 2023).
Zebrafish (Danio rerio) larvae at 4 dpf were transferred to a 96-well plate, a single larva per well. Larvae were treated with 750 µM 6-OHDA in system water for 24 h in an incubator at 28 °C. Then, solution was changed to system water with each peptide in different concentrations—10 µM, 20 µM, 30 µM, 40 µM and 50 µM [47]—and larvae were incubated at 28 °C for another 24 h. Finally, each larva was filmed for 5 min, and videos were processed by an automated tracking system (ToxTrac Version 2.96). Analysis parameters were mean speed (mm/s) and total distance swum (mm) (Figure 8). Statistical analysis was performed using a one-way analysis of variance (ANOVA) test followed by Dunnett’s test for multiple comparisons. Data were statistically analyzed using GraphPad Prism Software (GraphPad Software Inc., San Diego, CA, USA).
Figure 8 Zebrafish larva model. Zebrafish larvae were immersed in 6-OHDA 750 µM for 24 h, then in each peptide at 10 µM, 20 µM, 30 µM, 40 µM or 50 µM for 24 h. Videos were recorded for 5 min and then analyzed by software (ToxTrac Version 2.96). Parameters were mean speed and distance traveled.

Row | Sequence | Mean speed, compared to the control group | Total distance swum, compared to the control group
1 | GVGFATRQV [p-FABP7] | statistically equal results to the control group | statistically equal results to the control group
2 | TIEQEKQAGSS [p-Tbeta4, […], derived from thymosin beta-4] | statistically equal results to the control group | statistically equal results to the control group
3 | TLDLNEMDYIQRGGPE [p-MRPS36, peptide derived from mitochondrial ribosomal protein S36] | statistically equal results to the control group | statistically equal results to the control group

From article PMC11900122, “Study of Intracellular Peptides of the Central Nervous System of Zebrafish (Danio rerio) in a Parkinson’s Disease Model” (International Journal of Molecular Sciences, 2025)
